According to PubChem BioAssay AID1963853 (Molecular Pharmacology Branch, DTP, NCI, 2024):

System: 266295-075-R-J1-PDC spheroid viability
Assay: Anticancer human tumor 266295-075-R-J1-PDC patient-derived head and neck squamous carcinoma cell line growth inhibition [POLQ]
Details: spheroids with HUVEC and MSC; for IC50: curve of first compound; for viability, T/C: stronger effect = lower value
Method in brief: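 Three-cell-type spheroids modelling solid tumor plus stroma served as the readout system; POL inhibitors were tested individually and in combination, concentration ranges set by clinical Cmax where known.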

[1] = second compound 0.0316 µM, first compound 0.0316 µM
[2] = second compound 0.0316 µM, first compound 0.1 µM
[3] = second compound 0.0316 µM, first compound 0.316 µM
[4] = second compound 0.0316 µM, first compound 1 µM
[5] = second compound 0.0316 µM, first compound 3.16 µM
[6] = second compound 0.0316 µM, first compound 10 µM
[7] = second compound 0.1 µM, first compound 0.0316 µM
[8] = second compound 0.1 µM, first compound 0.1 µM
[9] = second compound 0.1 µM, first compound 0.316 µM
[10] = second compound 0.1 µM, first compound 1 µM
[11] = second compound 0.1 µM, first compound 3.16 µM
[12] = second compound 0.1 µM, first compound 10 µM
[13] = second compound 0.316 µM, first compound 0.0316 µM
[14] = second compound 0.316 µM, first compound 0.1 µM
[15] = second compound 0.316 µM, first compound 0.316 µM
[16] = second compound 0.316 µM, first compound 1 µM
[17] = second compound 0.316 µM, first compound 3.16 µM
[18] = second compound 0.316 µM, first compound 10 µM
[19] = second compound 1 µM, first compound 0.0316 µM
[20] = second compound 1 µM, first compound 0.1 µM
[21] = second compound 1 µM, first compound 0.316 µM
[22] = second compound 1 µM, first compound 1 µM
[23] = second compound 1 µM, first compound 3.16 µM
[24] = second compound 1 µM, first compound 10 µM
[25] = second compound 3.16 µM, first compound 0.0316 µM
[26] = second compound 3.16 µM, first compound 0.1 µM
[27] = second compound 3.16 µM, first compound 0.316 µM
[28] = second compound 3.16 µM, first compound 1 µM
[29] = second compound 3.16 µM, first compound 3.16 µM
[30] = second compound 3.16 µM, first compound 10 µM
[31] = second compound 10 µM, first compound 0.0316 µM
[32] = second compound 10 µM, first compound 0.1 µM
[33] = second compound 10 µM, first compound 0.316 µM
[34] = second compound 10 µM, first compound 1 µM
[35] = second compound 10 µM, first compound 3.16 µM
[36] = second compound 10 µM, first compound 10 µM
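Further: spheroids exposed to compounds for seven days before readout.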

## COc1cc2cc(C(=O)CCC(=O)O)sc2cc1OC + Cc1cccc(N(C)C(=O)C2C(O)CCN2c2nc(C)cc(C(F)(F)F)c2C#N)c1
Second compound 0.0316 µM
  IC50: > 10 µM
Second compound 0.1 µM
  IC50: > 10 µM
Second compound 0.316 µM
  IC50: > 10 µM
Second compound 1 µM
  IC50: > 10 µM
Second compound 3.16 µM
  IC50: > 10 µM
Second compound 10 µM
  IC50: > 10 µM
[1]
  viability, T/C: 118%
[2]
  viability, T/C: 112%
[3]
  viability, T/C: 90%
[4]
  viability, T/C: 117%
[5]
  viability, T/C: 95.7%
[6]
  viability, T/C: 96%
[7]
  viability, T/C: 113%
[8]
  viability, T/C: 103%
[9]
  viability, T/C: 82.9%
[10]
  viability, T/C: 111%
[11]
  viability, T/C: 115%
[12]
  viability, T/C: 115%
[13]
  viability, T/C: 134%
[14]
  viability, T/C: 112%
[15]
  viability, T/C: 92.6%
[16]
  viability, T/C: 114%
[17]
  viability, T/C: 87%
[18]
  viability, T/C: 84.8%
[19]
  viability, T/C: 106%
[20]
  viability, T/C: 87.2%
[21]
  viability, T/C: 126%
[22]
  viability, T/C: 104%
[23]
  viability, T/C: 110%
[24]
  viability, T/C: 80.3%
[25]
  viability, T/C: 101%
[26]
  viability, T/C: 112%
[27]
  viability, T/C: 116%
[28]
  viability, T/C: 109%
[29]
  viability, T/C: 98.2%
[30]
  viability, T/C: 91.3%
[31]
  viability, T/C: 97.2%
[32]
  viability, T/C: 109%
[33]
  viability, T/C: 102%
[34]
  viability, T/C: 104%
[35]
  viability, T/C: 109%
[36]
  viability, T/C: 89.2%

## O=C(Nc1ccc(O)c(NS(=O)(=O)c2ccc(F)cc2)c1)c1ccc(-c2ccccc2)cc1 + Cc1cccc(N(C)C(=O)C2C(O)CCN2c2nc(C)cc(C(F)(F)F)c2C#N)c1
Second compound 0.0316 µM
  IC50: > 10 µM
Second compound 0.1 µM
  IC50: > 10 µM
Second compound 0.316 µM
  IC50: > 10 µM
Second compound 1 µM
  IC50: > 10 µM
Second compound 3.16 µM
  IC50: > 10 µM
Second compound 10 µM
  IC50: > 10 µM
[1]
  viability, T/C: 96.1%
[2]
  viability, T/C: 104%
[3]
  viability, T/C: 125%
[4]
  viability, T/C: 139%
[5]
  viability, T/C: 144%
[6]
  viability, T/C: 103%
[7]
  viability, T/C: 118%
[8]
  viability, T/C: 104%
[9]
  viability, T/C: 124%
[10]
  viability, T/C: 110%
[11]
  viability, T/C: 123%
[12]
  viability, T/C: 97.7%
[13]
  viability, T/C: 107%
[14]
  viability, T/C: 87.6%
[15]
  viability, T/C: 76.6%
[16]
  viability, T/C: 95.2%
[17]
  viability, T/C: 146%
[18]
  viability, T/C: 88.3%
[19]
  viability, T/C: 102%
[20]
  viability, T/C: 97%
[21]
  viability, T/C: 103%
[22]
  viability, T/C: 129%
[23]
  viability, T/C: 114%
[24]
  viability, T/C: 85.5%
[25]
  viability, T/C: 136%
[26]
  viability, T/C: 94.5%
[27]
  viability, T/C: 110%
[28]
  viability, T/C: 136%
[29]
  viability, T/C: 127%
[30]
  viability, T/C: 103%
[31]
  viability, T/C: 108%
[32]
  viability, T/C: 113%
[33]
  viability, T/C: 113%
[34]
  viability, T/C: 108%
[35]
  viability, T/C: 142%
[36]
  viability, T/C: 97.2%

## COc1cccc2c1C(=O)c1c(O)c3c(c(O)c1C2=O)CC(O)(C(=O)CO)CC3OC1CC(N)C(O)C(C)O1 (stereo unspecified) + Nc1ccc(C#CCN(C(=O)Cc2ncc(C(F)(F)F)cc2C(F)(F)F)c2ccc(F)cc2)nn1
Second compound 0.0316 µM
  IC50: 4.42 µM
Second compound 0.1 µM
  IC50: 3.75 µM
Second compound 0.316 µM
  IC50: 4.37 µM
Second compound 1 µM
  IC50: 4.41 µM
Second compound 3.16 µM
  IC50: 3.47 µM
Second compound 10 µM
  IC50: 2.44 µM
[1]
  viability, T/C: 93%
[2]
  viability, T/C: 106%
[3]
  viability, T/C: 74.4%
[4]
  viability, T/C: 83.8%
[5]
  viability, T/C: 72.4%
[6]
  viability, T/C: 2.33%
[7]
  viability, T/C: 126%
[8]
  viability, T/C: 103%
[9]
  viability, T/C: 89.2%
[10]
  viability, T/C: 80.5%
[11]
  viability, T/C: 71.8%
[12]
  viability, T/C: 2.03%
[13]
  viability, T/C: 119%
[14]
  viability, T/C: 106%
[15]
  viability, T/C: 74.2%
[16]
  viability, T/C: 96.6%
[17]
  viability, T/C: 72.9%
[18]
  viability, T/C: 1.67%
[19]
  viability, T/C: 92.7%
[20]
  viability, T/C: 84.3%
[21]
  viability, T/C: 89.3%
[22]
  viability, T/C: 77.9%
[23]
  viability, T/C: 71.8%
[24]
  viability, T/C: 2.11%
[25]
  viability, T/C: 103%
[26]
  viability, T/C: 102%
[27]
  viability, T/C: 73.9%
[28]
  viability, T/C: 74.2%
[29]
  viability, T/C: 64%
[30]
  viability, T/C: 1.77%
[31]
  viability, T/C: 134%
[32]
  viability, T/C: 99.5%
[33]
  viability, T/C: 90.1%
[34]
  viability, T/C: 73.8%
[35]
  viability, T/C: 53.3%
[36]
  viability, T/C: 2.11%
